Data on 24 compounds can be found in patent US20240132475A1, “SUBSTITUTED PYRAZOLYL COMPOUNDS AS MALT-1 INHIBITORS” (AURIGENE ONCOLOGY LIMITED, priority 2021, published 2024).

The target of the assay is T1, MALT-1 (Isoform 1) (Homo sapiens, UniProt Q9UDY8).
T1 construct: using recombinant MALT-1 (Isoform 1, aa-840) generated in house; made in house
T1 sequence (Q9UDY8 1-824): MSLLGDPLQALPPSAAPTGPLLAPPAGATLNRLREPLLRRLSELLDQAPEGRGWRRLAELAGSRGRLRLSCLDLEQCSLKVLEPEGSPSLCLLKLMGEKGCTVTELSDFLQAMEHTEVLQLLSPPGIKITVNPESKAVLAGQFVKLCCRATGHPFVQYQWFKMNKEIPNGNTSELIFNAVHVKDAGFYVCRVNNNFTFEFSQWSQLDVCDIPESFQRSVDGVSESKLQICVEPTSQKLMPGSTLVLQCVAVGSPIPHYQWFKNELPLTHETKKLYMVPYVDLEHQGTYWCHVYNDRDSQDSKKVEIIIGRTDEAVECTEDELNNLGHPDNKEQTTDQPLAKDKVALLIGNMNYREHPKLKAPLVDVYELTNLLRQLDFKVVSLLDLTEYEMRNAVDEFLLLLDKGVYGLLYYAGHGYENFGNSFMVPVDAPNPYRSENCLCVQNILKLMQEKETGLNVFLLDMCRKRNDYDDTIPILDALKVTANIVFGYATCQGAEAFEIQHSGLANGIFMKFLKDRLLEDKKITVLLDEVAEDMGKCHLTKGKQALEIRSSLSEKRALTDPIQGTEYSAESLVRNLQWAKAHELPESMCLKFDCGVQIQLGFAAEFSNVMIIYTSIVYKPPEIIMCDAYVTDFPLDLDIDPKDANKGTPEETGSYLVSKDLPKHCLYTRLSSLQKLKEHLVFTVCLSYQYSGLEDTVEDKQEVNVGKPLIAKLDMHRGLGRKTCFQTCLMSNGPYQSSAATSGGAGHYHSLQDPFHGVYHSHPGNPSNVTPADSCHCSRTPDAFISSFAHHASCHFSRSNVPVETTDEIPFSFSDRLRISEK
The assay is described as follows: MALT-1 (Isoform 1) enzyme fluorescent biochemical assay. Particulars: for IC50: dose-response, sigmoidal curve fit, reported as groups A, B, C; for inhibition at 1 µM / Percent Inhibition (1 μM): test compound 1 μM; for inhibition at 1 µM / Percent Inhibition (1 μM) / inhibition at 10 µM: recombinant MALT-1 1.5 nM; for inhibition at 1 µM: read-out: Percent Inhibition (1 μM); for inhibition at 10 µM: test compound 10 μM (stated in the cell), read-out: Percent Inhibition (10 μM). On the procedure: The potency of compounds to inhibit MALT-1 (Isoform 1) enzyme was tested in a Fluorescent assay using recombinant MALT-1 (Isoform 1, aa-840) generated in house. The assay buffer was 50 mM HEPES (pH 7.5), 100 mM NaCl, 10 mM DTT, 1 mM EDTA, 0.9 M sodium citrate, 0.01% CHAPS. 1.5 nM of MALT-1 enzyme was incubated with test compounds ([…]) (1% DMSO) in the presence of buffer for 30 minutes at 30° C. The protease reaction was initiated by adding […] of AC-LRSR-MAC (Peptide International, USA) substrate and incubated for 240 min. After 240 min incubation, fluorescence emission of the samples at 460 nm was measured at an excitation of 355 nm. The percent inhibition was calculated using the following formula: […]. IC50 values were determined by fitting the dose-response data to sigmoidal curve fitting equation using Graph pad prism software V8.
ND represents Not Determined.

Turning to `CC(c1ccccc1)n1ncc(C(=O)Nc2cnc(-n3nccn3)c(C#N)c2)c1C(F)(F)F` (racemic) [Compound 2, N-(5-cyano-6-(2H-1,2,3-triazol-2-yl)pyridin-3-yl)-1-(1-phenylethyl)-5-(trifluoromethyl)-1H-pyrazole-4-carboxamide], the IC50 was less than 0.25 µM and the inhibition at 1 µM amounted to 96%.

On to `CC(c1cccc(F)c1)n1ncc(C(=O)Nc2cnc(-n3nccn3)c(C#N)c2)c1C(F)(F)F` (racemic) [Compound 3, N-(5-cyano-6-(2H-1,2,3-triazol-2-yl)pyridin-3-yl)-1-(1-(3-fluorophenyl)ethyl)-5-(trifluoromethyl)-1H-pyrazole-4-carboxamide], for which the IC50 is less than 0.25 µM and the inhibition at 1 µM came out at 83%.

For `CC(c1cccc(F)c1)n1ncc(C(=O)Nc2cnc(-n3nccn3)c(Cl)c2)c1C(F)(F)F` (racemic) [Compound 4, N-(5-chloro-6-(2H-1,2,3-triazol-2-yl)pyridin-3-yl)-1-(1-(3-fluorophenyl)ethyl)-5-(trifluoromethyl)-1H-pyrazole-4-carboxamide], the IC50 was 0.251 to 1 µM and the inhibition at 1 µM was 77%.

Take `CC(c1ccccc1)n1ncc(C(=O)Nc2cnc(-n3nccn3)c(Cl)c2)c1C(F)(F)F` (racemic) [Compound 5, N-(5-chloro-6-(2H-1,2,3-triazol-2-yl)pyridin-3-yl)-1-(1-phenylethyl)-5-(trifluoromethyl)-1H-pyrazole-4-carboxamide]: the IC50 was 0.251 to 1 µM and the inhibition at 1 µM worked out at 89%.

As to `CC(c1ccccc1)n1ncc(C(=O)Nc2cnc(-n3nccn3)c(C#N)c2)c1C(F)(F)F` (single isomer, unassigned) [Compound 2a], the IC50 was less than 0.25 µM and the “Percent Inhibition (1 μM)” value worked out at 99%.

Consider `CC(c1ccccc1)n1ncc(C(=O)Nc2cnc(-n3nccn3)c(C#N)c2)c1C(F)(F)F` (single isomer, unassigned) [Compound 2b], for which the IC50 was in the range of 0.251 to 1 µM and the “Percent Inhibition (1 μM)” value amounted to 57%.

Consider `CC(c1cccc(F)c1)n1ncc(C(=O)Nc2cnc(-n3nccn3)c(C#N)c2)c1C(F)(F)F` (single isomer, unassigned) [Compound 3a], for which the IC50 lay in the range of 0.251 to 1 µM and the “Percent Inhibition (1 μM)” value is on record as 76%.

Regarding `CC(c1cccc(F)c1)n1ncc(C(=O)Nc2cnc(-n3nccn3)c(C#N)c2)c1C(F)(F)F` (single isomer, unassigned) [Compound 3b], the concentration for half-maximal inhibition (IC50) was less than 0.25 µM and the “Percent Inhibition (1 μM)” value stood at 100%.

Take `CC(c1cccc(F)c1)n1ncc(C(=O)Nc2cnc(-n3nccn3)c(Cl)c2)c1C(F)(F)F` (single isomer, unassigned) [Compound 4a]: the IC50 is more than 1 µM and the inhibition at 10 µM was 83%.

As to `CC(c1cccc(F)c1)n1ncc(C(=O)Nc2cnc(-n3nccn3)c(Cl)c2)c1C(F)(F)F` (single isomer, unassigned) [Compound 4b], the IC50 was less than 0.25 µM and the inhibition at 1 µM came to 94%.

Consider `CC(c1ccccc1)n1ncc(C(=O)Nc2cnc(-n3nccn3)c(Cl)c2)c1C(F)(F)F` (single isomer, unassigned) [Compound 5a], for which the IC50 is 0.251 to 1 µM and the “Percent Inhibition (1 μM)” value worked out at 78%.

On to `CC(c1ccccc1)n1ncc(C(=O)Nc2cnc(-n3nccn3)c(Cl)c2)c1C(F)(F)F` (single isomer, unassigned) [Compound 5b], for which the IC50 is less than 0.25 µM and the “Percent Inhibition (1 μM)” value is listed as 99%.

Turning to `N#Cc1cc(NC(=O)c2cnn(Cc3cccc(F)c3Cl)c2C(F)(F)F)cnc1-n1nccn1` [Compound 1, 1-(2-chloro-3-fluorobenzyl)-N-(5-cyano-6-(2H-1,2,3-triazol-2-yl)pyridin-3-yl)-5-(trifluoromethyl)-1H-pyrazole-4-carboxamide], the IC50 is less than 0.25 µM and the inhibition at 1 µM turned out to be 100%.

With `CCC(c1cccc(F)c1)n1ncc(C(=O)Nc2cnc(-n3nccn3)c(C#N)c2)c1C(F)(F)F` (centres unmarked) [Compound 6, N-(5-cyano-6-(2H-1,2,3-triazol-2-yl)pyridin-3-y1)-1-(1-(3-fluorophenyl)propyl)-5-(trifluoromethyl)-1H-pyrazole-4-carboxamide], the IC50 is 0.251 to 1 µM and the inhibition at 1 µM stood at 81%.

As for `N#Cc1cc(NC(=O)c2cnn(Cc3ccccc3)c2C(F)(F)F)cnc1-n1nccn1` [Compound 7, 1-benzyl-N-(5-cyano-6-(2H-1,2,3-triazol-2-yl)pyridin-3-y1)-5-(trifluoromethyl)-1H-pyrazole-4-carboxamide], the IC50 fell in the range of 0.251 to 1 µM and the inhibition at 1 µM was determined as 88%.

For `N#Cc1cc(NC(=O)c2cnn(Cc3cccc(Cl)c3)c2C(F)(F)F)cnc1-n1nccn1` [Compound 8, 1-(3-chlorobenzyl)-N-(5-cyano-6-(2H-1,2,3-triazol-2-y1)pyridin-3-yl)-5-(trifluoromethyl)-1H-pyrazole-4-carboxamide], the concentration for half-maximal inhibition (IC50) is less than 0.25 µM and the inhibition at 1 µM turned out to be 87%.

As for `N#Cc1cc(NC(=O)c2cnn(Cc3ccc(Cl)cc3)c2C(F)(F)F)cnc1-n1nccn1` [Compound 9, 1-(4-chlorobenzyl)-N-(5-cyano-6-(2H-1,2,3-triazol-2-y1)pyridin-3-yl)-5-(trifluoromethyl)-1H-pyrazole-4-carboxamide], the IC50 was 0.251 to 1 µM and the inhibition at 1 µM was found to be 55%.

For `N#Cc1cc(NC(=O)c2cnn(Cc3ccc(F)cc3)c2C(F)(F)F)cnc1-n1nccn1` [Compound 10, N-(5-cyano-6-(2H-1,2,3-triazol-2-yl)pyridin-3-yl)-1-(4-fluorobenzyl)-5-(trifluoromethyl)-1H-pyrazole-4-carboxamide], the IC50 is more than 1 µM and the inhibition at 1 µM is 44%.

For `N#Cc1cccc(Cn2ncc(C(=O)Nc3cnc(-n4nccn4)c(C#N)c3)c2C(F)(F)F)c1` [Compound 12, N-(5-cyano-6-(2H-1,2,3-triazol-2-yl)pyridin-3-y1)-1-(3-cyanobenzyl)-5-(trifluoromethyl)-1H-pyrazole-4-carboxamide], the IC50 was less than 0.25 µM and the inhibition at 1 µM turned out to be 98%.

For `N#Cc1cc(NC(=O)c2cnn(Cc3ccncc3)c2C(F)(F)F)cnc1-n1nccn1` [Compound 13, N-(5-cyano-6-(2H-1,2,3-triazol-2-yl)pyridin-3-yl)-1-(pyridin-4-ylmethyl)-5-(trifluoromethyl)-1H-pyrazole-4-carboxamide], the IC50 is more than 1 µM and the inhibition at 1 µM came out at 40%.

With `N#Cc1cc(NC(=O)c2cnn(Cc3cccc(C(F)(F)F)c3)c2C(F)(F)F)cnc1-n1nccn1` [Compound 14, N-(5-cyano-6-(2H-1,2,3-triazol-2-yl)pyridin-3-y1)-5-(trifluoromethyl)-1-(3-(trifluoromethyl)benzyl)-1H-pyrazole-4-carboxamide], the IC50 is more than 1 µM and the inhibition at 1 µM turned out to be 67%.

With `N#Cc1cc(NC(=O)c2cnn(Cc3cccc(F)c3)c2C(F)(F)F)cnc1-n1nccn1` [Compound 15, N-(5-cyano-6-(2H-1,2,3-triazol-2-yl)pyridin-3-y1)-1-(3-fluorobenzy1)-5-(trifluoromethyl)-1H-pyrazole-4-carboxamide], the IC50 was less than 0.25 µM and the inhibition at 1 µM turned out to be 99%.

For the compound `COc1cccc(Cn2ncc(C(=O)Nc3cnc(-n4nccn4)c(C#N)c3)c2C(F)(F)F)c1` [Compound 17, N-(5-cyano-6-(2H-1,2,3-triazol-2-yl)pyridin-3-y1)-1-(3-methoxybenzyl)-5-(trifluoromethyl)-1H-pyrazole-4-carboxamide], the inhibition at 10 µM was 48%.

On to `N#Cc1cc(NC(=O)c2cnn(Cc3cccnc3)c2C(F)(F)F)cnc1-n1nccn1` [Compound 18, N-(5-cyano-6-(2H-1,2,3-triazol-2-yl)pyridin-3-yl)-1-(pyridin-3-ylmethyl)-5-(trifluoromethyl)-1H-pyrazole-4-carboxamide], for which the IC50 was more than 1 µM and the inhibition at 1 µM came to 47%.
